The source made the active and inactive calls.
Key:
[1] = molecular target: Protein-tyrosine kinase 2-beta (Homo sapiens, UniProt Q14289);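 also: potency of inhibitors of PYK2 kinase phosphorylation of poly-GT substrate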
[2] = test system: H9c2; test: cells; assay type: functional, cell-based; settings: Rattus norvegicus, H9c2, Myocardium;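 also: confirmatory concentration-response retest of ultra-high-throughput screening hits for modulation of myocardial damage; cell death induced by hydrogen peroxide oxidative stress; compound pretreatment for 60 min then peroxide exposure for 2 h; potency is for protecting the cells against peroxide damage rather than for killing them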
[3] = molecular target: T1, Short transient receptor potential channel 4 (Mus musculus, UniProt Q9QUQ5); test: mouse TRPC4 channel activators, dose response, cell-based, HEK293 TRPC4/mu-opioid, Fluo-4 calcium (AID 434937); assay type: functional
T1 sequence (Q9QUQ5 whole entry): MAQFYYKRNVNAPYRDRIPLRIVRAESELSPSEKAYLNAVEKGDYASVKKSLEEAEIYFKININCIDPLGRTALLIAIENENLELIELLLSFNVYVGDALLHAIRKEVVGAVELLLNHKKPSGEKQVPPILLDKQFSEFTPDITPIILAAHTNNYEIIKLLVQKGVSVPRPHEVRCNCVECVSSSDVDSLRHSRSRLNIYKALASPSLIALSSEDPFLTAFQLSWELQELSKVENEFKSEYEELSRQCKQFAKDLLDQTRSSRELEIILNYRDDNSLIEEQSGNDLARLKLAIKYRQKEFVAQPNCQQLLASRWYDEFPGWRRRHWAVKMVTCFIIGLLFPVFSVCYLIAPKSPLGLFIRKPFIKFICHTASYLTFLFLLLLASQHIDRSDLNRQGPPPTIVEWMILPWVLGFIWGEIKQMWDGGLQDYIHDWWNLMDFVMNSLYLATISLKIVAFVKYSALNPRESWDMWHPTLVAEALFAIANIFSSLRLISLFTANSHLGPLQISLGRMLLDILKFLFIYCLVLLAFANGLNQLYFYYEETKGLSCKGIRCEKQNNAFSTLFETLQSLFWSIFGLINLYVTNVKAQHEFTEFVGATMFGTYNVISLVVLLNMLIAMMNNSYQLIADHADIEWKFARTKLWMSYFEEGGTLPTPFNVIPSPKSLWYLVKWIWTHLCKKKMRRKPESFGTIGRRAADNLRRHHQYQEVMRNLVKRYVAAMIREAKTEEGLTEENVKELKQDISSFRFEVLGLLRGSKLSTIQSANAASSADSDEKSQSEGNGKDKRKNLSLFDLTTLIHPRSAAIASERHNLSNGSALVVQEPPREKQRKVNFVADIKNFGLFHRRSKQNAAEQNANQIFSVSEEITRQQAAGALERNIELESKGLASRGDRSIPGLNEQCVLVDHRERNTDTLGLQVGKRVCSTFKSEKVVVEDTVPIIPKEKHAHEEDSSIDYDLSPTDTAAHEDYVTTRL

[4] = test system: HEK293; test: cells; assay type: functional, cell-based; settings: Homo sapiens
[5] = test system: HEK293; test: NOD1 signaling inhibitors, primary screen, cell-based, luminescence, uHTS (AID 1578); assay type: functional; settings: Homo sapiens
[6] = test system: HEK293; test: cells; assay type: functional, cell-based; settings: Homo sapiens; remark: listed apart in the source
[7] = test system: HEK293; test: NOD2 signaling inhibitors in MDP-stimulated cells, cell-based, uHTS, luminescence (AID 2001); assay type: functional; settings: Homo sapiens
[8] = LGR2 antagonists, dose response, cell-based, HEK293, CRE-luciferase reporter, cherry pick, set 2 (AID 743343); assay type: functional;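 also: transfected cells were stimulated with diluted bursicon conditioned medium after compound addition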
[9] = MC4R antagonists, dose response, counter-screen for LGR2 antagonist project, cell-based, plate reader, cherry pick (AID 743444); assay type: functional;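 also: transfected HEK 293 cells stimulated with alpha-MSH peptide; potency of inhibitors of the alpha-MSH evoked signal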
[10] = inhibitors of clade B AD8 Env fusion, dose response, cell-based, cherry-pick (AID 652062); assay type: functional;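 also: luciferase signal from cell-cell fusion driven by HIV-1 clade B AD8 Env; potency is for inhibitors of fusion seen as a drop in luminescence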
[11] = inhibitors of HIV Env-driven cell fusion, dose response, cherry-pick (AID 652057); assay type: functional, cell-based
[12] = molecular target: T2, High affinity choline transporter 1 (Homo sapiens, UniProt Q9GZV3); test: CHT inhibitors, dose response, cell-based, 5-point CRC, membrane potential dye (AID 504840); assay type: functional
T2 sequence (Q9GZV3 whole entry): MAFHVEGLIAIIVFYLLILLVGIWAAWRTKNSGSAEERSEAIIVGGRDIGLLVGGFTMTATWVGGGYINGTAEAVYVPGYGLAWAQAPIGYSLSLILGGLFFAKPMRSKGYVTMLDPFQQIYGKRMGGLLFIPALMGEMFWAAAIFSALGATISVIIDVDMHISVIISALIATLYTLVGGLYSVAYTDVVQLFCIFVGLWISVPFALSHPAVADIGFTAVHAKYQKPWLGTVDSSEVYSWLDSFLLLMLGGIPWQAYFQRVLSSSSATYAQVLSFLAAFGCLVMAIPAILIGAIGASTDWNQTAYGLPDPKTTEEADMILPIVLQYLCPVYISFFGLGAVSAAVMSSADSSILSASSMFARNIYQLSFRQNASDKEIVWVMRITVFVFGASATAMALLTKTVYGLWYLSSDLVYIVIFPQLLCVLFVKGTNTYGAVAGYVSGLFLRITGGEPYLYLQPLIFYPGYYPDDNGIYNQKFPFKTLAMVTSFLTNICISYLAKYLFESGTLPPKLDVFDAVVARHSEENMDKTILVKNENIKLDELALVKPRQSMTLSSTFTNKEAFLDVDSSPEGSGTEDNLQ

[13] = molecular target: Large T antigen (Simian virus 40, UniProt P03070); assay type: functional, Betapolyomavirus macacae;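 also: Confirmatory-stage PubChem screen for compounds that inhibit SV40 T antigen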
Sequence of Large T antigen (P03070 whole entry): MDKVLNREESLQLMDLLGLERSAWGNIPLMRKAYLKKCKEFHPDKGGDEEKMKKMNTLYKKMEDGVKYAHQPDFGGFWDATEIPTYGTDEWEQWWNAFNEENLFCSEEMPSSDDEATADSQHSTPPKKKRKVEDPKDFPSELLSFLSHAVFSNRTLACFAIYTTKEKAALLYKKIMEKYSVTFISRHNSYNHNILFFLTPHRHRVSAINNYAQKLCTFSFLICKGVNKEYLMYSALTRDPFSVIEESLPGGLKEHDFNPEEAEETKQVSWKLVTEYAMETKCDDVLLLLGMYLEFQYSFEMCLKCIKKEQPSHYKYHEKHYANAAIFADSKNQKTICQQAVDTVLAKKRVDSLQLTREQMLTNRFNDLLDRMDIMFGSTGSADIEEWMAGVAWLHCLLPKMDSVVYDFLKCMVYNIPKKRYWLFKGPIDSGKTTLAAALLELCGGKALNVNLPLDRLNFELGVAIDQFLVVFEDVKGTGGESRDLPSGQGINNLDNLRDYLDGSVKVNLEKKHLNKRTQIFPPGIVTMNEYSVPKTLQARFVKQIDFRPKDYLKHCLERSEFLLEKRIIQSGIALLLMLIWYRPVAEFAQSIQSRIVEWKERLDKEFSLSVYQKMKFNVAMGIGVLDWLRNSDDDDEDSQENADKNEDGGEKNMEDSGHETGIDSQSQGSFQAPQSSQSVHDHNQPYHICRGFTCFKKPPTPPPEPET

[14] = molecular target: T3, Protein RecA (Mycobacterium tuberculosis, UniProt P9WHJ3); test: Fluorescence Cell-Free Homogeneous Dose Retest to Identify Inhibitors of RecA-Intein Splicing Activity. [Related pubchem assays (depositor defined):AID2097, AID2223, AID489010, AID492950]; assay type: functional
T3 sequence (P9WHJ3 whole entry): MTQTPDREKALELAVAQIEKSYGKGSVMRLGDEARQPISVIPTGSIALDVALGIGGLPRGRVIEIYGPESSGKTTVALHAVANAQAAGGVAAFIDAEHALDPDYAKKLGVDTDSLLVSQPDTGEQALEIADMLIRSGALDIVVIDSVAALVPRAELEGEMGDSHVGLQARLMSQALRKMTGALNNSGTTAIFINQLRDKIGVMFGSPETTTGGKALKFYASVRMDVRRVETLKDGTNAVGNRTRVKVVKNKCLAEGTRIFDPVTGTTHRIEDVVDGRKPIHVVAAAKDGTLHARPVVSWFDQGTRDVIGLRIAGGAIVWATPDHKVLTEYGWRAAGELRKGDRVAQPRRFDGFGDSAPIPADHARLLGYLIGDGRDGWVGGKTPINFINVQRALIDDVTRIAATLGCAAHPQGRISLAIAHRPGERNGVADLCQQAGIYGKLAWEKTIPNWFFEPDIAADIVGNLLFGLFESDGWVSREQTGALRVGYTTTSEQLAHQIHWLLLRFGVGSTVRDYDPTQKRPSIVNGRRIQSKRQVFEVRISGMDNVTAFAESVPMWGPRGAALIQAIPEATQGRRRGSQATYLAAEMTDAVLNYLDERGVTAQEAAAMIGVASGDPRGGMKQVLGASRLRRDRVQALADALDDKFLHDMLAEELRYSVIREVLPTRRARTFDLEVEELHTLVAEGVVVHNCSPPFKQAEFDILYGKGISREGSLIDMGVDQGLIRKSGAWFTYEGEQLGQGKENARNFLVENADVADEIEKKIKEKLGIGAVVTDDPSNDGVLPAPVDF

[15] = molecular target: T4, Replicative DNA helicase DnaB (Mycobacterium tuberculosis, UniProt P9WMR3); test: DnaB intein splicing inhibitors, dose response, biochemical, cell-free fluorescence (AID 449749); assay type: functional
T4 sequence (P9WMR3 whole entry): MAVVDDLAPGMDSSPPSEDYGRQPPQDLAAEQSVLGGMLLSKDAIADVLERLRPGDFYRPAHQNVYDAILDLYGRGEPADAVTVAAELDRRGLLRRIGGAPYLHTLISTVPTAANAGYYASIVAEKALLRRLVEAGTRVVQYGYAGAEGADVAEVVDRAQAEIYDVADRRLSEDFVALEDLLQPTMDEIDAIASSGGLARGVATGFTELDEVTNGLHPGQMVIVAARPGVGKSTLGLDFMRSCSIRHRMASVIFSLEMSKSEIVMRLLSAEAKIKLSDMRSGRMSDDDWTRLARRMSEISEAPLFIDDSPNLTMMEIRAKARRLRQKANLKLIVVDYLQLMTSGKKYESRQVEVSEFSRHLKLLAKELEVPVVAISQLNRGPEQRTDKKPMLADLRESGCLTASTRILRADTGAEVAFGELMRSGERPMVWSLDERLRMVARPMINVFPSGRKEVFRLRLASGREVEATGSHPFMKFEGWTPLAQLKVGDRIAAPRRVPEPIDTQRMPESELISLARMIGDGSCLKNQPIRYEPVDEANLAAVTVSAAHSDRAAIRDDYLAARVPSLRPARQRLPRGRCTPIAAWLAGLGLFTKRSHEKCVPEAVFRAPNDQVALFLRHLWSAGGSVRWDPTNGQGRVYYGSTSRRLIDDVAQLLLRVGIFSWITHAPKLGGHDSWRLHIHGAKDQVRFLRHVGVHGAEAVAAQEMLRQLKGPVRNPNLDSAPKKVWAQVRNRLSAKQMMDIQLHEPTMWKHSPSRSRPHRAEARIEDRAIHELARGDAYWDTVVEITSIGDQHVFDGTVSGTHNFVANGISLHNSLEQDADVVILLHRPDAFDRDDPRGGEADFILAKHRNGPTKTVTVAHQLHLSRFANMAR

[16] = THP-1 cell cytotoxicity, dose response, cytotoxicity control for Vif-APOBEC3G degradation inhibitor project, THP-1 cells (AID 1117359); assay type: functional; settings: Human immunodeficiency virus 1, THP-1
[17] = Luminescence Cell-Based Dose Response HTS to Identify Inhibitors of 5'UTR Stem-Loop Driven Prion Protein mRNA Translation in H4 Neuroglioblastoma Cells. [Related pubchem assays: 1827 (Project Summary), 1813 (Primary HTS)]; assay type: functional
[18] = molecular target: Glucose-6-phosphate 1-dehydrogenase (Homo sapiens, UniProt P11413); test: human G6PD enzyme inhibitors, dose response, selectivity assay for P. falciparum G6PD inhibitor project, biochemical, fluorescence (AID 504792); assay type: functional
Sequence of Glucose-6-phosphate 1-dehydrogenase (P11413 whole entry): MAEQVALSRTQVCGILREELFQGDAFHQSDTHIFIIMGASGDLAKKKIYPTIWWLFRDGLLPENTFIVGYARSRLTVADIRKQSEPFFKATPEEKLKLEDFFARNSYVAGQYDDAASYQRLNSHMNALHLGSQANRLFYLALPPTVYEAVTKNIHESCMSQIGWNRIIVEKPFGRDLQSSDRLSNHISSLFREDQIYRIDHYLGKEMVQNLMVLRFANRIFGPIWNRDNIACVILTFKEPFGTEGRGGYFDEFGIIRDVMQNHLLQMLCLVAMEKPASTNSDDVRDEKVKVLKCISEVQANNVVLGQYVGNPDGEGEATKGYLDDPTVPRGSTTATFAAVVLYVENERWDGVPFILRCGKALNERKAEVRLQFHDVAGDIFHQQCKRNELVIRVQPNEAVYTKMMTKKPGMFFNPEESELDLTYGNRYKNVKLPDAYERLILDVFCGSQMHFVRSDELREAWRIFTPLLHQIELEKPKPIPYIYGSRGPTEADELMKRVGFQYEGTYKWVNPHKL

[19] = inhibitors of firefly luciferase expression or activity, dose response, H4 neuroglioma cells, luminescence (AID 1990); assay type: functional, cell-based
[20] = inhibitors of SNCA 5'UTR-driven reporter translation, confirmation, H4 neuroglioma cells, luminescence (AID 1988); assay type: functional, cell-based

Sequence of Protein-tyrosine kinase 2-beta (Q14289 whole entry): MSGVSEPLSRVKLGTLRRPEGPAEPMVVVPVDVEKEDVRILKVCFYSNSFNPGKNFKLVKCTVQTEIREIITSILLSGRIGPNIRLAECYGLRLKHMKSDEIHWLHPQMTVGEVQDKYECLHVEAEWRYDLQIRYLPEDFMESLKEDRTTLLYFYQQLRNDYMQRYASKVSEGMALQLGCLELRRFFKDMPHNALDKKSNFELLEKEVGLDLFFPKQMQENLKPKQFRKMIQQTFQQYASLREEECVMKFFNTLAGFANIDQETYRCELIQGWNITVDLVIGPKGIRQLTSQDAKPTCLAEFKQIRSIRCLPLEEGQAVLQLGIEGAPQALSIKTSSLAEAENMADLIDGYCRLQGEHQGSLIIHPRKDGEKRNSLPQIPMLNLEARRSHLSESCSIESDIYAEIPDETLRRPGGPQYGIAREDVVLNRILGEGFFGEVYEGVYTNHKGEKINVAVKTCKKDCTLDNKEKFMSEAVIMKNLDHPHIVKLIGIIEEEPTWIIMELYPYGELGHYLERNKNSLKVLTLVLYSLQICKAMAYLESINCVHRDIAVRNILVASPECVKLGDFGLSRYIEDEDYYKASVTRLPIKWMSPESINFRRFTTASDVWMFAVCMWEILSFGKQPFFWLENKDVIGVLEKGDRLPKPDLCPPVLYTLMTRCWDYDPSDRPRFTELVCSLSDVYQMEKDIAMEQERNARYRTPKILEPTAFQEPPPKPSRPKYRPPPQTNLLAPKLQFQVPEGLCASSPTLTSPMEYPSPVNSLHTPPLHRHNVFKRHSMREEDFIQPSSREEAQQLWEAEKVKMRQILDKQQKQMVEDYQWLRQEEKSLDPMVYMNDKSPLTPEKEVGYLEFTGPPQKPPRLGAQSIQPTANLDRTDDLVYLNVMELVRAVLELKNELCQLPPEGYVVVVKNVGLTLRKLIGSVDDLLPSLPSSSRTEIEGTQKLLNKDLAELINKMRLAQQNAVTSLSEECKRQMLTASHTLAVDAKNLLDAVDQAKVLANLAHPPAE

## COc1nnc(-c2ccc(N3CCCCC3)c(NC(C)=O)c2)c2ccccc12
[1]
  IC50: > 69.5 µM (not active)

## COc1ccc2c(c1OC)C(=O)N1c3ccccc3C(=O)N(c3ccccc3)C21 (centres undefined)
[2]
  IC50: > 79 µM (inactive)

## CCC(=O)N1CCc2cc(Br)cc(S(=O)(=O)NCCCN(CC)Cc3ccccc3)c21
[3]
  EC50: 0.0133 µM (active)

## COc1ccc(NS(=O)(=O)c2ccc(N/N=C(\C)c3ccncc3)c([N+](=O)[O-])c2)cc1
[4]
  IC50: 3.9 µM (active)
[5]
  EC50: 4.33 µM (active)
[6]
  IC50: 17.8 µM (active)
[7]
  IC50: 2.11 µM (active)

## COCCCNc1ccn2nc(-c3ccccc3)cc2n1
[8]
  AC50: 7.19 µM (active)
[9]
  AC50: 6.82 µM (active)

## C[C@@H]1CN([C@@H](C)CO)C(=O)c2cccc(NS(=O)(=O)c3cccs3)c2O[C@@H]1CN(C)Cc1ccc(C(F)(F)F)cc1
[10]
  AC50: 16.7 µM (active)
[11]
  AC50: 2.04 µM (active)

## Cc1ccc2c(c1)c(CC(=O)Nc1ccc(C)c(F)c1)c(C(=O)O)n2C
[12]
  IC50: 12.6 µM (active)

## CCn1c(N2CCN(Cc3ccc([N+](=O)[O-])cc3)CC2)nc2ccccc21
[3]
  EC50: 0.133 µM (active)

## COc1cc(C2Nc3ccc4ncccc4c3C3=C2C(=O)CC(C)(C)C3)cc(OC)c1O (centres undefined)
[1]
  IC50: 16.4 µM (not active)

## Cc1ccc(C(=O)NC2CCCCC2)cc1S(=O)(=O)N1CCCC1
[12]
  IC50: 1.26 µM (active)

## Cc1cc2cc3c(N)[nH]nc3nc2cc1C
[13]
  IC50: 30.3 µM (active)
[1]
  IC50: > 69.5 µM (not active)

## CC(C)CC(NC(=O)CCl)c1ccccc1 (centres undefined)
[14]
  EC50: 4.29 µM (active)
[15]
  AC50: 320 µM (active)
[16]
  CC50: > 40 µM (active)

## O=C(CNc1ccc2c(c1)OCO2)N/N=C\c1cn(Cc2ccccc2)c2ccccc12
[17]
  EC50: 10.5 µM (active)
[18]
  IC50: > 80 µM (inactive)
[19]
  EC50: 9.09 µM (active)
[20]
  EC50: 6.5 µM (active)
